One series is described as follows: Solubility. The class given is physicochemical. Conditions: for Solubility (solvents in which insoluble): hexane and water; for Solubility (solvents in which soluble): organic solvents as listed.
Series [1] deals with PDE preparation partially purified from bovine cerebral cortex. Put plainly: PDE-inhibiting activity (Experimental Example 1). It counts as biochemical. Conditions: 1.2 mM cAMP, 4 U/ml calmodulin, 50 μM calcium chloride, pH 6.9, 30° C., 30 minutes. How it is done:
Methanol solutions of the test compounds at various concentrations (50 μl each) were respectively added to 500 μl of a reaction mixture comprising 80 mM imidazole-hydrochloride buffer (pH 6.9), 3 mM magnesium sulfate, 0.3 mM dithiothreitol, 100 mM sodium chloride, 50 μM calcium chloride, 1.2 mM cAMP, 4 U/ml calmodulin (1U is defined as the amount which activates 50% of the maximum activity of PDE under the conditions) and 26 mU/ml PDE (1U is defined as the amount which hydrolyzes 1 μmol of cAMP in one minute), and reaction was allowed to proceed at 30° C. for 30 minutes.
The reaction was discontinued by heating at 100° C. for 5 minutes. Then, 6 μmol of manganese chloride and 0.2 U of 5'-nucleotidase (1U is defined as the amount which forms 1 μmol of phosphoric acid in one minute) were added to the reaction mixture, and reaction was allowed to proceed at 30° C. for 30 minutes. […] Inhibition rate was calculated in accordance with the following equation:
Inhibition rate=(A-B)/A×100 (%)
A: Amount of the inorganic phosphoric acid formed in the absence of a test compound
B: Amount of the inorganic phosphoric acid formed in the presence of a test compound

For series [2], the system named is Rat Peritoneal Exudate Cells. Kind of series: Effect on Histamine Release from Rat Peritoneal Exudate Cells (Experimental Example 2). The class given is cell-based. Conditions: phosphatidyl-L-serine and concanavalin A stimulation; for IC50: 37° C., read-out: IC50 (concentration of a test compound which inhibits histamine release by 50%). On the procedure:
Effect on Histamine Release from Rat Peritoneal Exudate Cells
1) Preparation of Suspension of Rat Abdominal Cavity Cells and Effect on Histamine Release
Rats weighing from 350 to 450 g were sacrificed by exsanguination under dry ether anesthesia, and a medium for mast cells (composition : 150 mM NaCl, 3.7 mM KCl, 3 mM Na2 HPO4, 3.5 mM KH2 PO4, 1 mM CaCl2, 5.6 mM glucose, 0.1% bovine serum albumin and 10 U/ml heparin) prepared according to the method of Sullivan, et al. [J. Immunol. 114, 1473 (1973)] was intraperitoneally injected into the animals in an amount of 15 ml/animal. After massage of the abdominal parts for 2 minutes, the animals were subjected to celiotomy to sample exudate in the abdominal cavities. The collected exudate was subjected to centrifugation at 100 xg at 4° C. for 5 minutes, and the precipitate was mixed with an appropriate amount of the ice-cooled medium for mast cells mentioned above to prepare a suspension. Then, the centrifugation and the addition of the medium were repeated three times to prepare a cell suspension wherein the final concentration of the mast cells was about 2×10^5 cells/ml. Identification of the mast cells was carried out by staining intracellular granules with 0.05% Toluidine Blue.
One milliliter portions of the thus obtained cell suspension were preincubated at 37° C. for 5 minutes, and then respectively mixed with 0.1 ml each of test compound solutions having various concentrations,followed by incubation for 5 minutes. The incubated mixtures were further mixed with 0.1 ml each of 10 μg/ml phosphatidyl-L-serine and concanavalin A, and then incubated for 15 minutes.
Spontaneous histamine release was determined under similar incubation conditions except that physiological saline was used in place of phosphatidyl-L-serine and concanavalin A.
The reaction was stopped by addition of 3 ml of ice-cooled physiological saline, and the cell suspension was subjected to centrifugation at 1100 xg at 4° C. for 10 minutes to obtain a supernatant and a residue. Histamine contents of the supernatant and the residue were measured by the fluorescence method according to the method of Komatsu [Allergy 27, 67 (1978)]. Histamine release rate was indicated as the percentage of the histamine content of the supernatant to the total histamine content of the cells. The rate of inhibition of histamine release by the test compound solution was calculated according to the following equation: [formula]

Each structure is given as a SMILES string. ≈ marks a conversion by molar mass, not a printed value. Structures can show the parent of a compound that is named as a salt.

On to `Cc1c(C)c(C(=O)Oc2c(C)c(O)c(C)c(C)c2C(=O)SSC(=O)c2c(C)c(C)c(O)c(C)c2OC(=O)c2c(C)c(C)c(O)c(C)c2O)c(O)c(C)c1O` [KS-506a], for which, in “Solubility”, the “Solubility (solvents in which insoluble)” value is “insoluble in hexane and water”; the “Solubility (solvents in which soluble)” value was “soluble in methanol, ethanol, acetone, ethyl acetate, acetonitrile, dimethylsulfoxide and chloroform”. Further, in series [1], the “IC50 (concentration of a test compound inhibiting 50% of the PDE activity)” value is 1.22 µg/mL.

Turning to `Cc1c(C)c(C(=O)Oc2c(C)c(O)c(C)c(C)c2SSc2c(C)c(C)c(O)c(C)c2OC(=O)c2c(C)c(C)c(O)c(C)c2O)c(O)c(C)c1O` [KS-506g], in “Solubility”, the “Solubility (solvents in which insoluble)” value was “insoluble in hexane and water”; the “Solubility (solvents in which soluble)” value is “soluble in methanol, ethanol, acetone, ethyl acetate, acetonitrile, dimethylsulfoxide and chloroform”. In addition, the “IC50 (concentration of a test compound inhibiting 50% of the PDE activity)” value in series [1] is 0.080 µg/mL.

For orientation: inhibition means the change of the read-out against control, counted positive when it falls. On to `COC(=O)c1c(C)c(C)c(O)c(C)c1OC(=O)c1c(C)c(C)c(O)c(C)c1O` [KS-506h], for which, in “Solubility”, the “Solubility (solvents in which insoluble)” value was “insoluble in hexane and water”; the “Solubility (solvents in which soluble)” value was “soluble in methanol, acetone, ethyl acetate, acetonitrile and dimethylsulfoxide”. For the same compound, the inhibition at 3 µg/mL in series [2] (concentration of test compound 3.0 μg/ml, read-out: Release inhibition rate) stood at 13.9%. The inhibition at 10 µg/mL in series [2] (concentration of test compound 10.0 μg/ml, read-out: Release inhibition rate) came out at 59.9%. The IC50 in series [2] was 8.2 µg/mL (≈ 21.1 µM).

For the compound `CC(=O)CCSC(=O)c1c(C)c(C)c(O)c(C)c1OC(=O)c1c(C)c(C)c(O)c(C)c1O` [KS-506m], in “Solubility”, the “Solubility (solvents in which insoluble)” value was “insoluble in hexane and water”; the “Solubility (solvents in which soluble)” value was “soluble in methanol, acetone, ethyl acetate, acetonitrile and dimethylsulfoxide”. In series [2] (concentration of test compound 0.5 μg/ml, read-out: Release inhibition rate), the inhibition at 0.5 µg/mL was determined as 27.9%. Also, the inhibition at 1.5 µg/mL in series [2] (concentration of test compound 1.5 μg/ml, read-out: Release inhibition rate) stood at 58.4%. Moreover, the inhibition at 5 µg/mL in series [2] (concentration of test compound 5.0 μg/ml, read-out: Release inhibition rate) was determined as 83.3%. Further, the IC50 in series [2] came to 1.2 µg/mL (≈ 2.61 µM).

On to `Cc1c(C)c(C(=O)Oc2c(C)c(O)c(C)c(C)c2SSC(=O)c2c(C)c(C)c(O)c(C)c2OC(=O)c2c(C)c(C)c(O)c(C)c2O)c(O)c(C)c1O` [KS-506x], for which, in the series “Solubility”, the “Solubility (solvents in which insoluble)” value was “insoluble in hexane and water”; the “Solubility (solvents in which soluble)” value was “soluble in methanol, ethanol, acetone, ethyl acetate, acetonitrile, dimethylsulfoxide and chloroform”. Moreover, in series [1], the “IC50 (concentration of a test compound inhibiting 50% of the PDE activity)” value was 0.28 µg/mL.

Take `COc1ccc(Cc2nccc3cc(OC)c(OC)cc23)cc1OC` [Papaverine hydrochloride, reference compound]: the “IC50 (concentration of a test compound inhibiting 50% of the PDE activity)” value in series [1] amounted to 60 µg/mL.

As to `COc1c(O)cc2cc(C)oc(=O)c2c1O` [Reticurol, reference compound], in series [1], the “IC50 (concentration of a test compound inhibiting 50% of the PDE activity)” value came out at 20 µg/mL.

Source of the values: patent publication US5223637A, “KS-506 compounds” (Kyowa Hakko Kogyo Co., Ltd., priority 1988, dated 1993).
